# Experimental data from BindingDB's records for doi:10.1021/acs.jmedchem.7b01709 (Kobe Gakuin University, 2018).
# Assay: Inhibition of DRV-resistant protease V32I/L33F/I54M/V82I mutant in HIV1 transfected in 293T cells after 48 hrs by lentiviral vector-based luciferase reporter gene assay
row,SMILES,EC50
1,COc1cccc2cc(C(=O)N[C@H](C(=O)N[C@@H](Cc3ccccc3)[C@H](O)C(=O)N3CSC(C)(C)[C@H]3C(=O)NCc3c(C)cccc3C)[C@H]3CCOC3)oc12,0.3 nM

# Assay: Inhibition of protease L10F/V32I/M46I/I47V/Q58E/I84V mutant in HIV1 A17 infected in human MT4 cells assessed as reduction in virus-induced cytopathic effect after 5 days by MTT assay
row,SMILES,EC50
1,Cc1cccc(C)c1CNC(=O)[C@H]1N(C(=O)[C@@H](O)[C@H](Cc2ccccc2)NC(=O)[C@@H](NC(=O)c2cc3ccccc3o2)[C@H]2CCOC2)CSC1(C)C,678 nM
2,Cc1cccc(C)c1CNC(=O)[C@H]1N(C(=O)[C@@H](O)[C@H](Cc2ccccc2)NC(=O)[C@@H](NC(=O)c2cc3ccccc3o2)C(C)C)CSC1(C)C,1100 nM
3,Cc1cccc(C)c1CNC(=O)[C@H]1N(C(=O)[C@@H](O)[C@H](Cc2ccccc2)NC(=O)[C@@H](NC(=O)COc2cccc(N(C)C)c2)[C@H]2CCOC2)CSC1(C)C,165 nM
4,Cc1cccc(C)c1CNC(=O)[C@H]1N(C(=O)[C@@H](O)[C@H](Cc2ccccc2)NC(=O)[C@H](CC(N)=O)NC(=O)c2cc3ccccc3o2)CSC1(C)C,61 nM
5,Cc1ccccc1CNC(=O)[C@H]1N(C(=O)[C@@H](O)[C@H](Cc2ccccc2)NC(=O)[C@@H](NC(=O)c2cnc3ccccc3n2)[C@H]2CCOC2)CSC1(C)C,95 nM
6,Cc1cccc(C)c1CNC(=O)[C@H]1N(C(=O)[C@@H](O)[C@H](Cc2ccccc2)NC(=O)[C@@H](NC(=O)COc2cccc(Nc3ccccc3)c2)[C@H]2CCOC2)CSC1(C)C,226 nM
7,COc1cccc2cc(C(=O)N[C@H](C(=O)N[C@@H](Cc3ccccc3)[C@H](O)C(=O)N3CSC(C)(C)[C@H]3C(=O)NCc3c(C)cccc3C)[C@H]3CCOC3)oc12,25 nM
8,COc1cccc2cc(C(=O)N[C@@H](CC(N)=O)C(=O)N[C@@H](Cc3ccccc3)[C@H](O)C(=O)N3CSC(C)(C)[C@H]3C(=O)NCc3c(C)cccc3C)oc12,84 nM
9,COc1cccc2cc(C(=O)N[C@H](C(=O)N[C@@H](Cc3ccccc3)[C@H](O)C(=O)N3CSC(C)(C)[C@H]3C(=O)NCc3c(C)cccc3C)C(C)C)oc12,309 nM
10,Cc1ccccc1CNC(=O)[C@H]1N(C(=O)[C@@H](O)[C@H](Cc2ccccc2)NC(=O)c2cccc(O)c2C)CSC1(C)C [AG1776],2730 nM

# Assay: Inhibition of DRV-resistant protease V32I/L33F/I54M/I84V mutant in HIV1 transfected in 293T cells after 48 hrs by lentiviral vector-based luciferase reporter gene assay
row,SMILES,EC50
1,COc1cccc2cc(C(=O)N[C@H](C(=O)N[C@@H](Cc3ccccc3)[C@H](O)C(=O)N3CSC(C)(C)[C@H]3C(=O)NCc3c(C)cccc3C)[C@H]3CCOC3)oc12,1.2 nM
